Positions count from the first letter of the chain named. Each block holds one compound with its values, some of them ahead of it.
Legend:
Assay type in all cases: cell-based
[1] = target: T1, Or47a with Drosophila Orco (Drosophila melanogaster, UniProt P81921); test: two-electrode voltage clamp, Xenopus oocytes, current-voltage curves; details: agonist; 1 mM odorant
T1 construct: full-length cRNAs co-injected in Xenopus laevis oocytes; heteromer of unknown stoichiometry; with Odorant receptor coreceptor
T1 sequence (P81921 1-385): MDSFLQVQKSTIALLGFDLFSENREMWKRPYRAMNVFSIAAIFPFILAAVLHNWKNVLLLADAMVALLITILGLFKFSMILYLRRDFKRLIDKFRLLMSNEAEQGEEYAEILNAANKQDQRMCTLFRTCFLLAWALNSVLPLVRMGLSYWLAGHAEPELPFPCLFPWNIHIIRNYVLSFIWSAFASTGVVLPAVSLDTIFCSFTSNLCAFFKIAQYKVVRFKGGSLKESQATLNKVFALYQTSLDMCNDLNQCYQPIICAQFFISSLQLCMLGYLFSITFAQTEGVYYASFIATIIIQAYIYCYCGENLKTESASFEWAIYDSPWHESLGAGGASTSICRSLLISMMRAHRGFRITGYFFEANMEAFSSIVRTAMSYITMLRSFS
T1 sequence (Q9VNB5 1-486 partner): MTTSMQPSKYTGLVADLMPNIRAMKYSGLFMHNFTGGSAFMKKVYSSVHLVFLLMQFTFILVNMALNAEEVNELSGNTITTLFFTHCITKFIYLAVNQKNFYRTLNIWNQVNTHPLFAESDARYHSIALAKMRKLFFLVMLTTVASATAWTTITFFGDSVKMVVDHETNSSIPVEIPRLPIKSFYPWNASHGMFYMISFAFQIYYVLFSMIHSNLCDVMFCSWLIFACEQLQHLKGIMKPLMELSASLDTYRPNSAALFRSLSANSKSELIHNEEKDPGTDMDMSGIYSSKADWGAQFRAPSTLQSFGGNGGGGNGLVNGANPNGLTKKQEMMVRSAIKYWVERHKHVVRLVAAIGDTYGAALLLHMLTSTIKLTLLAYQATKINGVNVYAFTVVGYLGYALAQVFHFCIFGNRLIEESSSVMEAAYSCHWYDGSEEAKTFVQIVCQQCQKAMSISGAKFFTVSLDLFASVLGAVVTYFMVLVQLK

[2] = target: T2, Or22a with Drosophila Orco (Drosophila melanogaster, UniProt P81909); test: as above; details: agonist; 1 mM odorant
T2 construct: full-length cRNAs co-injected in Xenopus laevis oocytes; heteromer of unknown stoichiometry; with Odorant receptor coreceptor
T2 sequence (P81909 1-397): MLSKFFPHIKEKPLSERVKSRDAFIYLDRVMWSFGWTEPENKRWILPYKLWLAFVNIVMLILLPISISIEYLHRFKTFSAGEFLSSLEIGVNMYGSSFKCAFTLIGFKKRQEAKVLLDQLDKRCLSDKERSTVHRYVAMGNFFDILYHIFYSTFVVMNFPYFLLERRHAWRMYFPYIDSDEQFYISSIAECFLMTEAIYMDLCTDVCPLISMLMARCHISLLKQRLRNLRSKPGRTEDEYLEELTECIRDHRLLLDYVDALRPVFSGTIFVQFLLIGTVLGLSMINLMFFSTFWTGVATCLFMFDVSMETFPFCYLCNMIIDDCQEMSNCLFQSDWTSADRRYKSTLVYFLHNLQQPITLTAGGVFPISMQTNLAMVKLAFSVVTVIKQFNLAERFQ
T2 sequence (Q9VNB5 1-486 partner): T1 sequence (Q9VNB5 1-486 partner)

BmOr-1-BmOrco [3] = target: T3, BmOr-1-BmOrco (Bombyx mori, UniProt Q5WA61); test: two-electrode voltage clamp, Xenopus oocytes, bombykol response after MTSET; details: covalent; Cys modification of native Cys suggested; 60 s pretreatment; bombykol 1 µM
T3 construct: full-length cRNAs from modified pSPUTK vector, co-injected (25 ng each) in Xenopus laevis oocytes; heteromer of unknown stoichiometry; with Odorant receptor coreceptor
T3 sequence (Q5WA61 1-430): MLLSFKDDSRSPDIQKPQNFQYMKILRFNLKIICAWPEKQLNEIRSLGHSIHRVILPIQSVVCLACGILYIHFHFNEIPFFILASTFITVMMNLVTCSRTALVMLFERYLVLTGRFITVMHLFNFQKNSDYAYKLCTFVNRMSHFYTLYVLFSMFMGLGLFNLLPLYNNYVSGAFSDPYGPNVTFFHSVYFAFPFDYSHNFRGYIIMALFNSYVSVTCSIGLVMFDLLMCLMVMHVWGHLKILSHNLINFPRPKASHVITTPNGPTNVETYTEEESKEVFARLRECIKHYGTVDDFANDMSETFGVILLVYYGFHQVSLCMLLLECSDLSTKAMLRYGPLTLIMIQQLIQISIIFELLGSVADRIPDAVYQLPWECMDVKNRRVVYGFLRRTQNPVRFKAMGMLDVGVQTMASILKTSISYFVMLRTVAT
T3 sequence (Q7YT34 1-472 partner): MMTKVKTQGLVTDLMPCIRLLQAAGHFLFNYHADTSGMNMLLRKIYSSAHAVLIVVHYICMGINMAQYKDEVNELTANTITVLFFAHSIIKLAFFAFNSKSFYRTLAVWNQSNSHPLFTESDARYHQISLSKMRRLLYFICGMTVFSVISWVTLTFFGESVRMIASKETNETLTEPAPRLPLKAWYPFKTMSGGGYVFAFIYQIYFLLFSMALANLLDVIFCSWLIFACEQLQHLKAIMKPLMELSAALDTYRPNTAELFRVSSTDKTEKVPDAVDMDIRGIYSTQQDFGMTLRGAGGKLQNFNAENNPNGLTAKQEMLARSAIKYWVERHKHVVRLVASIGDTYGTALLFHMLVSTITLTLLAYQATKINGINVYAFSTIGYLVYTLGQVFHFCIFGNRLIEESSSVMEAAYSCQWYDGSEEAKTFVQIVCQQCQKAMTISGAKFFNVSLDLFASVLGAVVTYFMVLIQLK

BmOr-1-BmOrco [4] = target: T3, BmOr-1-BmOrco; test: two-electrode voltage clamp, Xenopus oocytes, dose-response
BmOr-1-BmOrco [5] = target: T4, BmOr-1-BmOrco (Bombyx mori, UniProt Q5WA61, E356C); test: as above
T4 construct: full-length cRNAs from modified pSPUTK vector, co-injected (25 ng each) in Xenopus laevis oocytes; heteromer of unknown stoichiometry; with Odorant receptor coreceptor
T4 sequence (Q5WA61 1-430 E356C): T3 sequence (Q5WA61 1-430) with E356C
T4 sequence (Q7YT34 1-472 partner): T3 sequence (Q7YT34 1-472 partner)

SMILES: CCCCCOC(C)=O [pentyl acetate]
two-electrode voltage clamp, Xenopus oocytes, current-voltage curves [1]: channels gated by their cognate ligands (ethyl butyrate, pentyl acetate

SMILES: CCCC(=O)OCC [ethyl butyrate]
two-electrode voltage clamp, Xenopus oocytes, current-voltage curves [2]: channels gated by their cognate ligands (ethyl butyrate, pentyl acetate

% reduction of bombykol response at 2.5 mM (BmOr-1-BmOrco [3]): 46%
SMILES: C[N+](C)(C)CCSS(C)(=O)=O [MTSET]

SMILES: CCC/C=C\C=C\CCCCCCCCCO [Bombykol]
EC50 (BmOr-1-BmOrco [4]): 0.19 µM | EC50 (BmOr-1-BmOrco [5]): 0.3 µM

— paper PMC3293798, “Amino Acid Residues Contributing to Function of the Heteromeric Insect Olfactory Receptor Complex” (PLoS ONE, 2012)
